# From US20220117940A1, “COMPOSITION FOR INCREASING PREGNANCY RATE OF RUMINANTS AND PREPARATION METHOD AND APPLICATION THEREOF” (CHINA AGRICULTURAL UNIVERSITY, priority 2020, published 2022)
# Marks after values point to notes of the source that are not given here.
# Experiments:
# [1] = system: Holstein cows; test: Serum reproductive hormone levels after melatonin injection in cows exposed to ovsynch TAI; type: in vivo; conditions: mean ± standard error; for P (progesterone) levels: pregnant cows, Day 30 of pregnancy; for P (progesterone) levels / E2 (estradiol) levels / LH levels: P<0.05; for E2 (estradiol) levels / LH levels / FSH levels: serum; for E2 (estradiol) levels / LH levels: 8 hours after injection of GnRH plus melatonin; for FSH levels: after melatonin with last dose of GnRH, no significant change (P>0.05)
# Source text: The process is substantially same as that of Example 2, except that blood was collected at each stage from ovsynch TAI to pregnancy tests, in order to determine the changes in relevant reproductive hormones in ovulating cows.
# [2] = system: Holstein cows exposed to TAI; test: Pregnancy and calving rates of cows exposed to ovsynch TAI with melatonin injection; type: in vivo
# Procedure: A melatonin injection of 2-3 mL was injected in combination with the injection of GnRH of ovsynch TAI in cows (as shown in FIG. 1), with B-scan pregnancy tests on Days 32-35, or pregnancy tests by recto-vaginal technique on Day 60. The pregnancy rates were calculated.
# 2 mL of the injection prepared in Example 1 was administrated together with the last injection of GnRH to multipara Holstein cows (1-3 pregnancies) exposed to postpartum ovsynch TAI. In this process, a randomized administration approach was used, for example administer to every other cow in which the first cow was administrated, the second was not administrated, the third was administrated, and so on.
# (§1) 50 to 60 days after the insemination, the pregnancy tests were performed on the Holstein cows by means of rectal examination. Alternatively, 32 days after the insemination, the pregnancy rates were calculated by means of B-scan ultrasonography and pregnancy detection kits.
# [3] = system: Holstein cows exposed to natural ovulation; test: Pregnancy and calving rates of cows exposed to natural ovulation with melatonin injection; type: in vivo
# Procedure: as §1
# [4] = system: cows exposed to TAI or natural ovulation; test: Pregnancy and calving rates of first insemination in cows (TAI or natural ovulation) with melatonin injection; type: in vivo, Holstein cows
# Procedure: as §1
# [5] = system: mouse; conditions: 5 mg/kg injected before the MT1 receptor peak; cited from earlier work
# [6] = Serum MT concentration after melatonin injection in cows exposed to ovsynch TAI (liquid chromatography); conditions: melatonin injected with last dose of GnRH, PG-PG-GnRH-PG-GnRH ovsynch TAI, mean ± standard error, P<0.05 vs no melatonin
# [7] = first insemination, TAI plus natural ovulation, of 162
compound,measurement,setting,value
"COc1ccc2[nH]cc(CCNC(C)=O)c2c1 [Melatonin, N-acetyl-5-methoxytryptamine]",P (progesterone) levels,[1],0.18±0.02
same,P (progesterone) levels,[1]; listed as MT,0.1825±0.0235
same,E2 (estradiol) levels,[1],11.68±0.88
same,LH levels,[1],5.02±0.23
same,E2 (estradiol) levels,[1]; listed as MT,11.678±0.8834
same,LH levels,[1]; listed as MT,5.022±0.2324
same,FSH levels,[1],2.48±0.25
same,FSH levels,[1]; listed as MT,2.482±0.2463
same,Pregnancy rate,"[2]; TAI, 2 mL of 15 mg/mL injection with last GnRH, P<0.05 vs control",36.26%^a
same,Number of pregnant cows,"[2]; TAI, 2 mL of 15 mg/mL injection with last GnRH, of 91 cows",33
same,Calving rate,"[2]; TAI, P<0.05 vs control",25.27%^a
same,Number of calves,"[2]; TAI, of 91 cows",23
same,Increase of pregnancy rate relative to control,"[2]; multipara cows, ovsynch TAI, 9.68/26.58",more than 36.42%
same,Increase of pregnancy rate,"[2]; preparation comprising melatonin of 15 mg/mL, cows exposed to ovsynch TAI",11%
same,Increase of pregnancy rate relative to control,[3]; 14.60/26.25,more than 55.62%
same,Calving rate,[3]; P<0.05 vs control,29.58%^A
same,Pregnancy rate,[3]; P<0.05 vs control,40.85%^A
same,Number of calves,[3]; of 71 cows,21
same,Number of pregnant cows,[3]; of 71 cows,29
same,Increase of pregnancy rate relative to control,"[4]; TAI or natural ovulation, 11.85/26.42",more than 44.85%
same,Pregnancy rate of first insemination,"[4]; TAI plus natural ovulation, P<0.05 vs control",38.27%^a
same,Calving rate,"[4]; first insemination, TAI plus natural ovulation, P<0.05 vs control",27.16%^a
same,Number of calves,[4]; [7],44
same,Number of pregnant cows,[4]; [7],62
same,Expression of corpus luteum marker genes Akr1c18 and Cyp11a1,[5],upregulate
same,Level of progesterone in mouse serum,[5],significantly increase
same,MT levels in blood (serum),[6],4.35±0.53
same,MT levels in blood (serum),[6]; listed as MT,4.3465±0.5286
